Tests used:
Experiment in all cases: Kinase selectivity, scanMAX Kinase assay panel (DiscoverX), % control at 1 uM
Assay type in all cases: binding
[1] = target: T1, scanMAX Kinase assay panel (Homo sapiens, UniProt P42338); settings: PIK3CB; 1 uM; read-out: Percent Control (%)
T1 construct: purchased DiscoverX
Method in brief: (§1)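 Activity was called for kinases showing % control under 35, calculated from compound signal relative to positive and negative controls. Each compound screened at 1 uM against the DiscoverX scanMAX panel.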

[2] = target: T2, scanMAX Kinase assay panel (Homo sapiens, UniProt P45983); settings: JNK1; 1 uM; read-out: Percent Control (%)
T2 construct: purchased DiscoverX
Method in brief: as §1

[3] = target: T3, scanMAX Kinase assay panel (Homo sapiens, UniProt Q9Y5S2); settings: MRCKB; 1 uM; read-out: Percent Control (%)
T3 construct: purchased DiscoverX
T3 sequence (Q9Y5S2 whole entry): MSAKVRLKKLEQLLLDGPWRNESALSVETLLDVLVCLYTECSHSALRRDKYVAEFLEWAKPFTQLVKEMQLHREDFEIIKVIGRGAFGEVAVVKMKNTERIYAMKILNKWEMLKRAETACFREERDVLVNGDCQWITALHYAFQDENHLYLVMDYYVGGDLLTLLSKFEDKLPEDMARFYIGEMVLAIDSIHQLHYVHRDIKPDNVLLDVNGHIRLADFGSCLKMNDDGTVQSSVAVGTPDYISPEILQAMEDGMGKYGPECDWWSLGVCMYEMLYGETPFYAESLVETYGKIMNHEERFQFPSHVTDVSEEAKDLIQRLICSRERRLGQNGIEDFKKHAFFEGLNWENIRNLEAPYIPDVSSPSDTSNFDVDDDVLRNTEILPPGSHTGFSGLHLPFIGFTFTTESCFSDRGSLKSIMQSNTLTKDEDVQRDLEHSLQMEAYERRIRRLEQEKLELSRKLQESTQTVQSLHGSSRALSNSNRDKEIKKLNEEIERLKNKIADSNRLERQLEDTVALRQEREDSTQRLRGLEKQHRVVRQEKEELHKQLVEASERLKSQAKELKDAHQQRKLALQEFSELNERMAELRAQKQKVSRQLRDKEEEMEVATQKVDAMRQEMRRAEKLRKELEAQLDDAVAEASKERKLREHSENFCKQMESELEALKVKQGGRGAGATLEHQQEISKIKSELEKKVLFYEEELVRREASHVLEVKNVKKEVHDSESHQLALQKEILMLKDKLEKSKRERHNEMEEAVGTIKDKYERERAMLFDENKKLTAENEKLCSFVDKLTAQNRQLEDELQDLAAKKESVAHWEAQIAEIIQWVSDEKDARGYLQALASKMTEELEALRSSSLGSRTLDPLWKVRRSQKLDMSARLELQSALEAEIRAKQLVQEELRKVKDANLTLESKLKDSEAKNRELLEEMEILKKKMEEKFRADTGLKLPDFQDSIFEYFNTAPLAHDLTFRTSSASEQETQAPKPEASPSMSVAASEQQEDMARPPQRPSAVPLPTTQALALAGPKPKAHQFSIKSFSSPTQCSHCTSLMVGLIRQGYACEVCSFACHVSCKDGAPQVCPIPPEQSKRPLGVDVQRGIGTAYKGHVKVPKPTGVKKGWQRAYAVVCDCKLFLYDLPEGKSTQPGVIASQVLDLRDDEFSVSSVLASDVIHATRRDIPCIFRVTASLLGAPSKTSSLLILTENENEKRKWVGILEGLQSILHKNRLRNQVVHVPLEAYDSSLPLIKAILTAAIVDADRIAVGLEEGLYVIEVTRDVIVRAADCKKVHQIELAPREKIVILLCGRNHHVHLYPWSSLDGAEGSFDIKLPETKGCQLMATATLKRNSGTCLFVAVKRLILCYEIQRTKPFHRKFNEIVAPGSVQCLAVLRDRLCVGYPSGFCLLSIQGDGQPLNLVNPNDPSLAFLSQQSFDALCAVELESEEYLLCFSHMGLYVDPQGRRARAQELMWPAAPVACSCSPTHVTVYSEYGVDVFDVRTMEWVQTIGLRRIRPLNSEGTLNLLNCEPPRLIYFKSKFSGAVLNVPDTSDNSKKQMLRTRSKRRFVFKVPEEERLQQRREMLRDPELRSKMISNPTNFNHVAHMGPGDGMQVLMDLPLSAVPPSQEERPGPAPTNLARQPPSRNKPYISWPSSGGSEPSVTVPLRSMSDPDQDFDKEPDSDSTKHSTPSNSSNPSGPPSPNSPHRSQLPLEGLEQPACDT
Method in brief: as §1

[4] = target: T4, scanMAX Kinase assay panel (Homo sapiens, UniProt P42679); settings: CTK; 1 uM; read-out: Percent Control (%)
T4 construct: purchased DiscoverX
T4 sequence (P42679 1-507): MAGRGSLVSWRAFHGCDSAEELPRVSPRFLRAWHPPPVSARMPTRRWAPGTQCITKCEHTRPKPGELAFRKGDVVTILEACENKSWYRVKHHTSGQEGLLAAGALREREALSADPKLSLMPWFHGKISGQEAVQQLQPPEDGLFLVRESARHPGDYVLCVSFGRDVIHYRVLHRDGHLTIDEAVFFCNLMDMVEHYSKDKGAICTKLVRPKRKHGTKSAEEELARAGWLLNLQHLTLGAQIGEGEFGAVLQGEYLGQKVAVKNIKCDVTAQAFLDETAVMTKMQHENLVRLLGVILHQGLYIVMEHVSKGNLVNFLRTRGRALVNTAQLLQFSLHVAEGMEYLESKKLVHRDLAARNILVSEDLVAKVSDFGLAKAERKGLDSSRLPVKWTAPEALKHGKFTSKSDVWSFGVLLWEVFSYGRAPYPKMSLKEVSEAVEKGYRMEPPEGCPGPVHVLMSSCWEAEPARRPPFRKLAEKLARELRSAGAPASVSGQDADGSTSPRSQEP
Method in brief: as §1

[5] = target: T5, scanMAX Kinase assay panel (Homo sapiens, UniProt P00533, G719S); settings: EGFR (G719S); 1 uM; read-out: Percent Control (%)
T5 construct: purchased DiscoverX
Method in brief: as §1

[6] = target: T6, scanMAX Kinase assay panel (Homo sapiens, UniProt Q00526); settings: CDK3; 1 uM; read-out: Percent Control (%)
T6 construct: purchased DiscoverX
T6 sequence (Q00526 whole entry): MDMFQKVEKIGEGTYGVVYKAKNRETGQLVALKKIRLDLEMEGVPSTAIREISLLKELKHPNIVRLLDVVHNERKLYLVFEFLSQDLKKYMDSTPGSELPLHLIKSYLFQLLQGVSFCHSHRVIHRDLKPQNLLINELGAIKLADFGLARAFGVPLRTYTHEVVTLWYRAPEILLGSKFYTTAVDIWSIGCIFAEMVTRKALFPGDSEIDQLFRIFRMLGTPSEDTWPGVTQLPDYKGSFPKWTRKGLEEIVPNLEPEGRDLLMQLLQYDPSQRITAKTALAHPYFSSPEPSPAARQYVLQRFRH
Method in brief: as §1

[7] = target: T7, scanMAX Kinase assay panel (Homo sapiens, UniProt Q8TF76); settings: HASPIN; 1 uM; read-out: Percent Control (%)
T7 construct: purchased DiscoverX
T7 sequence (Q8TF76 1-798): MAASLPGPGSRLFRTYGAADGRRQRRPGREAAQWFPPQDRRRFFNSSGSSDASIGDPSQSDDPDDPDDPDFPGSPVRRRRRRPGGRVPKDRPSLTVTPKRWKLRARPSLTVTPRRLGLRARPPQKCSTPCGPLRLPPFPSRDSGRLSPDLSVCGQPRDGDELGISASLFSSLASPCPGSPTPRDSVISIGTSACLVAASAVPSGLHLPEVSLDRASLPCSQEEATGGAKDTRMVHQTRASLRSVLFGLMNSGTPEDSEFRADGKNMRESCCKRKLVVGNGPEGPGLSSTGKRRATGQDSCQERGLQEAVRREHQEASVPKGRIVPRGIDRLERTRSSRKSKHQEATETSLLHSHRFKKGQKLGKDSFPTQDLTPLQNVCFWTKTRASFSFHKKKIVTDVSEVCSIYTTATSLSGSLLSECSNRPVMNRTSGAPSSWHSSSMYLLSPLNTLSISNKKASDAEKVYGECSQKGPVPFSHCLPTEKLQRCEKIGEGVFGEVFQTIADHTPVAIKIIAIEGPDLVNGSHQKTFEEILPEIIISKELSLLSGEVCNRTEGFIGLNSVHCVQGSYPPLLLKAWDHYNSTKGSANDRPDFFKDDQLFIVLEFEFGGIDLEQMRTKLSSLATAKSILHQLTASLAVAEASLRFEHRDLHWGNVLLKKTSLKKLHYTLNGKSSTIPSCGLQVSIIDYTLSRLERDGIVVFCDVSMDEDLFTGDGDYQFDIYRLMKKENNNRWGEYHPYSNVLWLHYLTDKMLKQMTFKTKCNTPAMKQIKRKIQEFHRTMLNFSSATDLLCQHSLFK
Method in brief: as §1

[8] = target: T8, scanMAX Kinase assay panel (Homo sapiens, UniProt P00533); settings: EGFR; 1 uM; read-out: Percent Control (%)
T8 construct: purchased DiscoverX
Method in brief: as §1

[9] = target: T9, scanMAX Kinase assay panel (Homo sapiens, UniProt P00533, DEL746-750); settings: EGFR (E746-A750del); 1 uM; read-out: Percent Control (%)
T9 construct: purchased DiscoverX
Method in brief: as §1

[10] = target: T10, scanMAX Kinase assay panel (Homo sapiens, UniProt P54646); settings: AMPK-alpha2; 1 uM; read-out: Percent Control (%)
T10 construct: purchased DiscoverX
Method in brief: as §1

[11] = target: T11, scanMAX Kinase assay panel (Homo sapiens, UniProt P10721, V559D); settings: KIT (V559D); 1 uM; read-out: Percent Control (%)
T11 construct: purchased DiscoverX
Method in brief: as §1

[12] = target: T12, scanMAX Kinase assay panel (Homo sapiens, UniProt Q86Z02); settings: HIPK1; 1 uM; read-out: Percent Control (%)
T12 construct: purchased DiscoverX
T12 sequence (Q86Z02 whole entry): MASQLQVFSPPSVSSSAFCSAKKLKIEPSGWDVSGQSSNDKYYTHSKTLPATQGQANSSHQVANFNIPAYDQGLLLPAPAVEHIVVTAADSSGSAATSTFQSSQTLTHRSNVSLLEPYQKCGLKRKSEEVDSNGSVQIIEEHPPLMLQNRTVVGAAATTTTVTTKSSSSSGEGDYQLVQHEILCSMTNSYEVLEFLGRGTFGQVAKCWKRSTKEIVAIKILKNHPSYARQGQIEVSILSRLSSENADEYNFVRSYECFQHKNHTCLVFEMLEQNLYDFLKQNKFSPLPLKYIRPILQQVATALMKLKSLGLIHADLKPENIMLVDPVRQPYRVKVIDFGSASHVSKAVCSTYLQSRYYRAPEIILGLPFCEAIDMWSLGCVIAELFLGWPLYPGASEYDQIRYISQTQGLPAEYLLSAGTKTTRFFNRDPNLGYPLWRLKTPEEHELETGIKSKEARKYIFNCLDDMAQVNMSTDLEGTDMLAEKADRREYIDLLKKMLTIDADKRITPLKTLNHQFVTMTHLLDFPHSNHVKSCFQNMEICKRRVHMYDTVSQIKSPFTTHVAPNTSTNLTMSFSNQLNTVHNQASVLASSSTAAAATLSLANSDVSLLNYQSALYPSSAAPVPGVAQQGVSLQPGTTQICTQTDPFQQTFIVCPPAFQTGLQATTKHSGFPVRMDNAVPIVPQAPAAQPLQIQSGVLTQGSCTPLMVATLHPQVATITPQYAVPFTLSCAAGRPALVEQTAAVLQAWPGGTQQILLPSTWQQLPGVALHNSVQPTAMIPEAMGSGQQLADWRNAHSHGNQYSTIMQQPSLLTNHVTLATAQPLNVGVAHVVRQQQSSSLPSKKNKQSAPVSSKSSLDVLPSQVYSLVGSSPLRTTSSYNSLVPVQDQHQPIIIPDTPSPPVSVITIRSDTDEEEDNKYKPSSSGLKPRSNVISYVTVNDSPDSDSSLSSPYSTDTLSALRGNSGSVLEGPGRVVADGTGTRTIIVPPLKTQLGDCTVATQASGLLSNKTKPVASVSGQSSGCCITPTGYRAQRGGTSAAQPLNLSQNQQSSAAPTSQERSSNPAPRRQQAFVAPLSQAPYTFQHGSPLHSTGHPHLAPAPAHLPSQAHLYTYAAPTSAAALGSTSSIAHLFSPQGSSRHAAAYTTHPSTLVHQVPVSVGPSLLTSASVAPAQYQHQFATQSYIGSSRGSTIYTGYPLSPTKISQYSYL
Method in brief: as §1

[13] = target: T13, scanMAX Kinase assay panel (Homo sapiens, UniProt P45984); settings: JNK2; 1 uM; read-out: Percent Control (%)
T13 construct: purchased DiscoverX
T13 sequence (P45984 whole entry): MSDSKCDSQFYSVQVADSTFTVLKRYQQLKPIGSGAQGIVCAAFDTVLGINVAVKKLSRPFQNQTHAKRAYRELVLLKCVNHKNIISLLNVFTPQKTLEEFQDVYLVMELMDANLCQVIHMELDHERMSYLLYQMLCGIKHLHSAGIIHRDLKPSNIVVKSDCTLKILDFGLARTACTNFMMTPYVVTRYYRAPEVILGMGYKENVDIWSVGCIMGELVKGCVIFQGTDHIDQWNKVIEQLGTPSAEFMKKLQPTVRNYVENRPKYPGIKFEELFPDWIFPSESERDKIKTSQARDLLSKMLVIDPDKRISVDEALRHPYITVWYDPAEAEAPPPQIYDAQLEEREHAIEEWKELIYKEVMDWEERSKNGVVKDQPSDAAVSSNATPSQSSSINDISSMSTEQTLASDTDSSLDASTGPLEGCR
Method in brief: as §1

[14] = target: T14, scanMAX Kinase assay panel (Homo sapiens, UniProt Q9UM73, L1196M); settings: ALK (L1196M); 1 uM; read-out: Percent Control (%)
T14 construct: purchased DiscoverX
Method in brief: as §1

T1 sequence (P42338 whole entry): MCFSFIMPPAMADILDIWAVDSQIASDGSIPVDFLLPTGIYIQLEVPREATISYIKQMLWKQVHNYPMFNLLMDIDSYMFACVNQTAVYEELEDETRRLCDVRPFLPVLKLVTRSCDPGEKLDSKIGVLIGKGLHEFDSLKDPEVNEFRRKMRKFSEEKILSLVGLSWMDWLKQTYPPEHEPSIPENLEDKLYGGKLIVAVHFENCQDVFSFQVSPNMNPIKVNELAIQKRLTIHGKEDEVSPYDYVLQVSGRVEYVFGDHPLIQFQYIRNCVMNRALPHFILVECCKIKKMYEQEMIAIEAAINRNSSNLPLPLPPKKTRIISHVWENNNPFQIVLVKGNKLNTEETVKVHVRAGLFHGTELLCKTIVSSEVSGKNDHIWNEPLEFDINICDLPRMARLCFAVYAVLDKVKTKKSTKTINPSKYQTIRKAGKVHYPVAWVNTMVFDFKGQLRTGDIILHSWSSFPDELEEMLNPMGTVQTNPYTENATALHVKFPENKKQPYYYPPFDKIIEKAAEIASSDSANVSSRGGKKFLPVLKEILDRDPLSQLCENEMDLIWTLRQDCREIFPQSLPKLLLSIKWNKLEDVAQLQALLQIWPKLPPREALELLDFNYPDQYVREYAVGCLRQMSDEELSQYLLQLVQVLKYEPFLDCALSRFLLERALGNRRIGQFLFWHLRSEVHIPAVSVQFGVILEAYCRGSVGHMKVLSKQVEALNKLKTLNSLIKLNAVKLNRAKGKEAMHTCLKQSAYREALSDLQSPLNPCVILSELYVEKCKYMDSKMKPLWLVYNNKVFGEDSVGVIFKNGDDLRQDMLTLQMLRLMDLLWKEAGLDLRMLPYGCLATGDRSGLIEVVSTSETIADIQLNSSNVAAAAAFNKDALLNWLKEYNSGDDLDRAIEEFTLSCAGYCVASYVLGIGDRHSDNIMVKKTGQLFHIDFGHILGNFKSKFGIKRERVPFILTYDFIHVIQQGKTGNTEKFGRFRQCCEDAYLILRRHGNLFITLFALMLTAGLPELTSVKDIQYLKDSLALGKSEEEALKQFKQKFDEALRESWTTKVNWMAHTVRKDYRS

SMILES | remaining binding at 1 µM [1] | remaining binding at 1 µM [2] | remaining binding at 1 µM [3] | remaining binding at 1 µM [4] | remaining binding at 1 µM [5] | remaining binding at 1 µM [6] | remaining binding at 1 µM [7] | remaining binding at 1 µM [8] | remaining binding at 1 µM [9] | remaining binding at 1 µM [10] | remaining binding at 1 µM [11] | remaining binding at 1 µM [12] | remaining binding at 1 µM [13] | remaining binding at 1 µM [14]
Cc1ccc(C(=O)Nc2ccc(CN3CCN(C)CC3)c(C(F)(F)F)c2)cc1C#Cc1cnc2c(Nc3cnn(C)c3)cccn12 [Example 1, 4-methyl-3-((8-((1-methyl-1H-pyrazol-4-yl)amino)imidazo[1,2-a]pyridin-3-yl)ethynyl)-N-(4-((4-methylpiperazin-1-yl)methyl)-3-(trifluoromethyl)phenyl)benzamide] | 92% | 4% | 99% | 22% | 1% | 62% | 80% | 3% | 0% | 4% | 0% | 51% | 0% | 29%
Cc1cn(-c2cc(NC(=O)c3ccc(C)c(C#Cc4cnc5c(Nc6cnn(C)c6)cccn45)c3)cc(C(F)(F)F)c2)cn1 [Example 12, 4-methyl-N-(3-(4-methyl-1H-imidazol-1-yl)-5-(trifluoromethyl)phenyl)-3-((8-((1-methyl-1H-pyrazol-4-yl)amino)imidazo[1,2-a]pyridin-3-yl)ethynyl)benzamide] | 100% | 63% | 94% | 74% | 20% | 89% | 100% | 28% | 8% | 79% | 1% | 71% | 66% | 100%
Cc1ccc(NC(=O)C2(C(=O)Nc3ccc(F)cc3)CC2)cc1C#Cc1cnc2c(Nc3cnn(C(C)C)c3)cccn12 [Example 78] | 100% | 99% | 100% | 90% | 100% | 86% | 85% | 85% | 93% | 100% | 0% | 91% | 100% | 100%

— patent US10870647B2, “Imidazopyridine derivative, method for preparing same, and pharmaceutical composition containing same as active ingredient for preventing or treating cancer” (DAEGU-GYEONGBUK MEDICAL INNOVATION FOUNDATION, priority 2016, dated 2020)
